This note sets out measurements from patent US6916806B2, “Medicinal composition containing 1,3-thiazine derivative” (priority 2001, dated 2005).

In series [1] the target is T1, human CB2 receptor (CB2R) (Homo sapiens, UniProt P34972).
T1 construct: The coding region of human CB2R cDNA (Munro etc, Nature, 1993, 365, 61-65) was inserted; expressed in transfected cells
Put plainly: Human CB2 receptor (CB2R) binding inhibition, [3H]CP55940, membranes of CB2R-expressing CHO cells. The procedure: (§1) The coding region of human CB2R cDNA (Munro etc, Nature, 1993, 365, 61-65) was inserted into the mammalian expression vector, pSVL SV40 Late Promoter Expression Vector (Amersham Pharmacia Biotech Inc.). The prepared vector was transfected into Chinese Hamster Ovary (CHO) cells with LipofectAMINE reagent (Gibco BRL) according to the manufacture's protocol, and the stable CB2R-expressing clones were selected.
(§2) The crude membrane fractions were prepared from the CB2R-expressing CHO cells. Receptor binding assay was performed by incubating the membranes with each test compound and [^3H]CP55940 (at a final concentration of 0.5 nM: NEN Life Science Products) in the assay buffer (50 mM Tris-HCl, 1 mM EDTA, 3 mM MgCl2, pH 7.4) containing 0.5% bovine serum albumin (BSA) for 2 h at 25° C. The incubation mixture was filtered through 1% polyethylenimine-treated GF/C glass filter and washed with 50 mM Tris-HCl (pH 7.4) containing 0.1% BSA. The radioactivity was then counted with a liquid scintillation counter.
(§3) For the receptor binding assay of human CB1 receptor (CB1R), the stable CB1R-expressing CHO cells were prepared as described above, and the binding assay was performed using their membrane fractions. As a consequence of these studies, the Ki values of each test compound for both cannabinoid receptors were determined, which were presented in Table.

For series [2], the target named is T2, human CB1 receptor (CB1R) (Homo sapiens, UniProt P21554).
T2 construct: expressed in transfected cells
T2 sequence (P21554 whole entry): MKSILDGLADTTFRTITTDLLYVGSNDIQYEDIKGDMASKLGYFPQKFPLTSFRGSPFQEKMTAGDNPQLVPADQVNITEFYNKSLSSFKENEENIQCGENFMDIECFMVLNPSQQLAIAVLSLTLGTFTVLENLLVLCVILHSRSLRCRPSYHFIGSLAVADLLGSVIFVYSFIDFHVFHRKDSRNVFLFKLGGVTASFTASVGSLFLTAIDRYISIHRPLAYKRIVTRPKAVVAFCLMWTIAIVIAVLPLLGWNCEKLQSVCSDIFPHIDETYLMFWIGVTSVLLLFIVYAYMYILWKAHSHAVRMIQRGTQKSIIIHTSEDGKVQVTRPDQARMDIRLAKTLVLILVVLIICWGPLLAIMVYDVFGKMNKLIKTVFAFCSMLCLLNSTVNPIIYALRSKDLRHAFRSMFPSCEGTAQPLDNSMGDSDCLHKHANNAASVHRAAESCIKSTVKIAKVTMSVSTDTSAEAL
The series can be described thus: Receptor binding assay of human CB1 receptor (CB1R), membranes of CB1R-expressing CHO cells. The procedure: as §1, §2, §3

In series [3] the target is T3, human CB2R (Homo sapiens, UniProt P34972).
T3 construct: The coding region of human CB2R cDNA (Munro etc, Nature, 1993, 365, 61-65) was inserted; expressed in transfected cells
T3 sequence (P34972 whole entry): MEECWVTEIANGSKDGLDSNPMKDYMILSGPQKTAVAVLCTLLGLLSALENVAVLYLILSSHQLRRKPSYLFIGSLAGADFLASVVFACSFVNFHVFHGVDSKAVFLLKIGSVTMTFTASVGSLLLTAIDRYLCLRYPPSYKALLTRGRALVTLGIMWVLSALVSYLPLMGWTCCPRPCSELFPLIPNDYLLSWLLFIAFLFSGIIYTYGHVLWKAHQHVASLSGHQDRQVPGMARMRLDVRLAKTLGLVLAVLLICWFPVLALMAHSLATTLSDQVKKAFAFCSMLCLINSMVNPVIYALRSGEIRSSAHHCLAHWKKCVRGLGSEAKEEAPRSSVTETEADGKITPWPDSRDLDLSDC
Put plainly: CB2R-mediated suppression of forskolin-stimulated cAMP synthesis in CHO cells expressing human CB2R. It counts as cell-based. The procedure: The CHO cells expressing human CB2R were incubated with test compounds for 15 min. After the incubation, forskolin (final concentration of 4 μM, Sigma) was added and the cells were incubated for 20 min at 37° C. The reaction was stopped by the addition of 1N HCl and the amount of cAMP in the cell supernatant was measured using an EIA kit (Amersham Pharmacia Biotech) according to the manufacture's protocol.
The antagonistic activity of each compound was also evaluated in this assay.

T1 sequence (P34972 whole entry): as above

`CC(C)OC(=O)CSC(=S)N1CC(C)(C)CSC1=Nc1ccccc1C(C)C` [Compound I-13]: the melting point is 95 to 96 °C. Moreover, the Ki in series [1] amounted to 6 nM.
On to `CC(C)c1ccccc1N=C1SCC(C)(C)CN1C(=S)SCC(=O)OC(C)(C)C` [Compound I-14], for which the inhibition constant (Ki) is 2 nM in series [1] and above 5000 nM in series [2].
Turning to `C=CCSC(=S)N1CC(CC)(CC)CSC1=Nc1ccccc1C(C)C` [Compound I-39], the Ki in series [1] is 2 nM; in series [2], 906 nM. Further, in series [3], 13.7 nM corresponded to half-maximal inhibition (IC50).
`CCOC(=O)CSC(=S)N1CC(CC)(CC)CSC1=Nc1ccccc1C(C)C` [Compound I-40]: affinity in series [1] was put at a Ki of 0.5 nM.
As for `CCC1(CC)CSC(=Nc2ccccc2C(C)C)N(C(=S)SCC(=O)OC(C)C)C1` [Compound I-41], the inhibitory constant (Ki) in series [1] turned out to be 1 nM.
For `CCC1(CC)CSC(=Nc2ccccc2C(C)C)N(C(=S)SCC(=O)OC(C)(C)C)C1` [Compound I-42], the Ki in series [1] is 0.3 nM; in series [2] it was above 5000 nM.
For `CC=CCSC(=S)N1CC(CC)(CC)CSC1=Nc1ccccc1C(C)C` [Compound I-44], the Ki in series [1] worked out at 1.1 nM; in series [2], 321 nM.
Taken in the same sequence, the figures for `CCC1(CC)CSC(=Nc2ccccc2C(C)C)N(C(=S)SCC=C(C)C)C1` [Compound I-45] were 1.2 nM and 386 nM.
Take `C=CCCSC(=S)N1CC(CC)(CC)CSC1=Nc1ccccc1C(C)C` [Compound I-46]: the inhibition constant Ki in series [1] amounted to 2 nM; in series [2], 3230 nM. This compound registered a concentration for half-maximal inhibition (IC50) in series [3] of 5.4 nM.
Taken in the same sequence, the figures for `C=CCSC(=S)N1CC(CC)(CC)CSC1=Nc1ccccc1C(C)CC` (stereo not drawn) [Compound I-49] were 2.9 nM, 1120 nM and 2.2 nM.
For `C=CCSC(=S)N1CC2(CCCC2)CSC1=Nc1ccccc1C(C)C` [Compound I-74], in that order: 1.2 nM, 704 nM and 1.6 nM.
`Cc1cc(CSC(=S)N2CC3(CCCC3)CSC2=Nc2ccccc2C(C)C)on1` [Compound I-78] returned a Ki in series [2] of 1020 nM.
In the case of `COc1ccccc1N=C1SCC2(CCCC2)CN1C(=S)SCC(=O)OC(C)(C)C` [Compound I-80], the Ki in series [1] is 2.2 nM; in series [2], above 5000 nM.
As for `C=CCSC(=S)N1CC2(CCCCC2)CSC1=Nc1ccc(CC)cc1` [Compound I-88], the melting point fell in the range of 98 to 100 °C.
Regarding `C=CCSC(=S)N1CC2(CCOCC2)CSC1=Nc1ccccc1C(C)C` [Compound I-92], the melting point was in the range of 73.5 to 75 °C. The same compound showed a Ki in series [1] of 6 nM. This compound also displayed a Ki in series [2] of 1310 nM. In series [3], this compound showed an IC50 below 0.2 nM.
`CSC(=S)N1CC2(CCOCC2)CSC1=Nc1ccccc1C(C)C` [Compound I-93]: the melting point was 127 to 128 °C. In addition, in series [1], the inhibitory constant (Ki) worked out at 3 nM. In addition, the inhibition constant (Ki) in series [2] worked out at 1540 nM. In series [3], this compound came in with a half-inhibitory concentration (IC50) of 0.6 nM.

The Ki is the dissociation constant of the complex between target and ligand, obtained from inhibition or displacement. Read a high Ki as weaker binding. By melting point is commonly meant the temperature of the solid-liquid transition. One may read the IC50 as the concentration at which inhibition is half-maximal. Read a high IC50 as a need for much substance.
